Ends that are not written are not given here.

The values below come from PMC4294780, “Sustained signalling by PTH modulates IP3 accumulation and IP3 receptors through cyclic AMP junctions” (Journal of Cell Science, 2015).

The test system of experiment [1] is HEK-PR1 cells. In words: Potentiation of carbachol-evoked Ca2+ signals by 8-Br-cAMP in HEK-PR1 cells. Type of experiment: cell-based. To be noted: n = 3; for Peak [Ca2+]c: 8-Br-cAMP 10 mM, then carbachol 20 µM; for pEC50 / Δ[Ca2+]c (maximal potentiated increase): carbachol 20 µM. From the text:
(§1) Results are shown as mean±s.e.m.

The subject of experiment [2] is EPAC1 and EPAC2. In words: Effect of EPAC antagonist ESI-09 on Ca2+ signals in HEK-PR1 cells. In kind it is cell-based.
Experimental: (§2) HEK-PR1 cells (∼10^5 PTH1R/cell) were cultured as described previously ([Tovey et al., 2008]). Measurements of [Ca^2+]c in cell populations were performed as previously described ([Tovey et al., 2008]). Briefly, confluent cultures of HEK-PR1 grown in 96-well plates were loaded with fluo 4 by incubation with fluo 4AM (2 µM, 20°C) in HEPES-buffered saline (HBS). HBS had the following composition (in mM): NaCl 135, KCl 5.9, MgCl2 1.2, CaCl2 1.5, HEPES 11.6 and glucose 11.5, pH 7.3. After 1 h, loading medium was replaced with HBS, and after 45 min cells were used at 20°C for measurements of [Ca^2+]c. A fluorescence plate-reader equipped to allow automated fluid additions (FlexStation 3, Molecular Devices, Sunnyvale, CA, USA) was used to record fluorescence at intervals of 1.44 s (excitation at 485 nm; emission at >525 nm) ([Tovey et al., 2006]).
Experiment [3] relates to PKA. In words: Effect of PKA inhibitor H89 on PTH(1-34)-evoked cAMP and potentiated Ca2+ signals. Type of experiment: cell-based. As to conditions: H89 10 µM, 20 min; for intracellular cAMP in H89-treated cells relative to matched control cells: mean±s.e.m., n = 3, SEM. As for the experimental part:
These assays were performed under conditions that replicate those used for measurements of [Ca^2+]c. HEK-PR1 cells were grown in 24-well plates until ∼90% confluent, [^3H]adenine (2 µCi per well) was then added to the culture medium. After 2 h at 37°C in 5% CO2, the medium was removed, cells were washed with HBS, and used for experiments in HBS at 20°C. Because many cells extrude cAMP into the extracellular medium ([Copsel et al., 2011]), reactions were terminated by first removing the medium and then adding ice-cold trichloroacetic acid (5% v/v, 1 ml). After 30 min on ice, [^3H]cAMP was separated from other ^3H-adenine nucleotides by sequential column chromatography on Dowex cation exchange resin and alumina as previously described ([Pantazaka et al., 2013]). The activity of the eluates was determined by liquid scintillation counting and amounts of [^3H]cAMP are expressed as percentages of the sum of the activities recovered in the [^3H]cAMP, [^3H]ADP and [^3H]ATP fractions.

Experiment [4] deals with adenylyl cyclase. In words: Potentiation of carbachol-evoked Ca2+ signals by NKH477 in HEK-PR1 cells. Type of experiment: cell-based. To be noted: n = 3; for Peak [Ca2+]c: NKH477 200 µM, then carbachol 20 µM; for pEC50 / Δ[Ca2+]c (maximal potentiated increase): carbachol 20 µM.
Excerpt: as §1

Experiment [5] concerns the target T1, PTH1R (Homo sapiens, UniProt Q03431).
T1 construct: expressed in transfected cells
T1 sequence (Q03431 27-593): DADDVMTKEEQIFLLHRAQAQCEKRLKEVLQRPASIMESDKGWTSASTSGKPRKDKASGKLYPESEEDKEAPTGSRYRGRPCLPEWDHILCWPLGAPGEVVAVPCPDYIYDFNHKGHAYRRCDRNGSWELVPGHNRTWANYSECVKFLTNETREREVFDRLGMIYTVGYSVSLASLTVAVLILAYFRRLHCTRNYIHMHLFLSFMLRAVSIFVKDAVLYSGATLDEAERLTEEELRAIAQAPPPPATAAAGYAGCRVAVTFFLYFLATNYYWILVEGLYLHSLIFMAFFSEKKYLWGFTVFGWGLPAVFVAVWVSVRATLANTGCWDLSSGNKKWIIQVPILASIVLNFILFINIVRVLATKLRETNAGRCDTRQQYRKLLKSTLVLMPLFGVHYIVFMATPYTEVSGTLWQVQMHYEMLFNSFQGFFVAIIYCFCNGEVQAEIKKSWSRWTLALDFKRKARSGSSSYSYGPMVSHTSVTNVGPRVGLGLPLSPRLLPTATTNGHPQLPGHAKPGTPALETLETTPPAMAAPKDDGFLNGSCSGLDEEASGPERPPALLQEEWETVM
In words: Intracellular cAMP accumulation ([3H]adenine labelling) in HEK-PR1 cells. In kind it is cell-based. To be noted: n = 3, read-out: cAMP pEC50 (converted). As for the experimental part:
These assays were performed under conditions that replicate those used for measurements of [Ca^2+]c. HEK-PR1 cells were grown in 24-well plates until ∼90% confluent, [^3H]adenine (2 µCi per well) was then added to the culture medium. After 2 h at 37°C in 5% CO2, the medium was removed, cells were washed with HBS, and used for experiments in HBS at 20°C. […] The activity of the eluates was determined by liquid scintillation counting and amounts of [^3H]cAMP are expressed as percentages of the sum of the activities recovered in the [^3H]cAMP, [^3H]ADP and [^3H]ATP fractions.
On the technique in general: Changes in cAMP serve as a functional read-out for many G protein-coupled receptors.

For experiment [6], the target named is T1, PTH1R. In words: Potentiation of carbachol-evoked Ca2+ signals by PTH analogues (fluo 4, HEK-PR1 cell populations). Type of experiment: cell-based. To be noted: then carbachol 20 µM in Ca2+-free HBS, n = 3, read-out: peak [Ca2+]c pEC50 (converted).
Experimental: Briefly, confluent cultures of HEK-PR1 grown in 96-well plates were loaded with fluo 4 by incubation with fluo 4AM (2 µM, 20°C) in HEPES-buffered saline (HBS). […] After 1 h, loading medium was replaced with HBS, and after 45 min cells were used at 20°C for measurements of [Ca^2+]c.
Concentration–effect relationships were fitted to Hill equations using Prism version 5 (GraphPad, San Diego, CA, USA). Results are shown as mean±s.e.m. […] All statistical comparisons are therefore between experiments performed in parallel and analysed using paired Student's t-tests.
The subject of experiment [7] is HEK-PR1 cells. In words: Cytosolic IP3 measured with FRET sensor in single HEK-PR1 cells. Type of experiment: cell-based. As to conditions: carbachol 1 mM; mean±s.e.m., n = 17 coverslips; SEM. The text has this: A FRET sensor based on the IP3-binding core of IP3R1 ([Tovey and Taylor, 2013]) was used to measure cytosolic concentrations of IP3 in single HEK-PR1 cells under conditions similar to those used for measurements of [Ca^2+]c. The plasmid and properties of the sensor were as described previously ([Tovey and Taylor, 2013]). The sensor comprises the IP3-binding core attached through short linkers to enhanced cyan fluorescent protein (CFP) at its N-terminus and enhanced yellow fluorescent protein (YFP) at its C-terminus (see inset to Fig. 3A). IP3 binding causes a decrease in FRET. […] An Olympus IX71 inverted fluorescence microscope with a 40× objective and a 440 nm/520 nm dual band-pass dichroic mirror was used to record fluorescence from widefield images after excitation at 440 nm (to excite CFP). A Luca EMCCD camera (Andor Technology, Belfast, UK) was used to collect emitted fluorescence simultaneously at 1-s intervals from YFP (520–550 nm) and CFP (455–485 nm) using a Cairn Optosplit 2 image-splitter fitted with a 495-nm dichroic mirror. After correction for background fluorescence (determined from cytosolic areas of non-transfected cells), FRET ratios are presented as the ratio of CFP emission to YFP emission, so that the ratio increases (decreased FRET) after IP3 binding.

Experiment [8] relates to PTH1R. As to conditions: Table S1, properties from the literature; ref Cupp et al., 2013 and others listed in Table S1; cited from earlier work.
Experiment [9] concerns PTH1R. The arrangement: method as in 2 sources, one per row (each row's own in cited_ref): ref Cupp et al., 2013 and others listed in Table S1 ||| ref supplementary material Table S1. To be noted: Table S1, properties from the literature; ref Cupp et al., 2013 and others listed in Table S1; cited from earlier work.
The target of experiment [10] is T1, PTH1R. In words: Ca2+ signals directly evoked by PTH analogues alone in HEK-PR1 cells. Type of experiment: cell-based. To be noted: highest concentrations of the analogue, no carbachol (Fig. 1F).
Experimental: as §2
Where [11] appears, read: PTH analogue 1 min, mean ± s.e.m., SEM.

For the molecule `Nc1ncnc2c1nc(Br)n2[C@@H]1O[C@@H]2COP(=O)(O)O[C@H]2[C@H]1O` [8-Br-cAMP], the “Peak [Ca2+]c” value in [1] (5 min) was found to be 386 ± 21 nM; in experiment [1] (30 min), 222 ± 24 nM. Also, the pEC50 in experiment [1] (8-Br-cAMP 5 min) was 3.5 ± 0.1 /M; in experiment [1] (8-Br-cAMP 30 min) it was 3.7 ± 0.1 /M. The “Δ[Ca2+]c (maximal potentiated increase)” value came out at 207 ± 7 nM in experiment [1] (8-Br-cAMP 5 min) and 113 ± 5 nM in experiment [1] (8-Br-cAMP 30 min).

Regarding `CC(C)(C)c1cc(C(=O)C(C#N)=NNc2cccc(Cl)c2)no1` [ESI-09, 3-[5-(tert-butyl)isoxazol-3-yl]-2-[2-(3-chlorophenyl)hydrazono]-3-oxopropanenitril], in experiment [2] (ESI-09 10 µM, 5 min), the “effect on Ca2+ signals evoked by carbachol alone” value is “no significant effect”, the “effect on concentration-dependent potentiation by PTH(1-34) of carbachol-evoked Ca2+ signals” value is “no significant effect” and the “effect on small Ca2+ signals directly evoked by high concentrations of PTH(1-34)” value is “no significant effect”. The “effect on potentiation of carbachol-evoked Ca2+ signals by 8-Br-cAMP” value in [2] (ESI-09 10 µM, added 5 min before 8-Br-cAMP) is listed as “unaffected”. The “effect on carbachol-evoked Ca2+ release” value in experiment [2] (higher concentrations of ESI-09 (50 µM) or more prolonged treatments (15 min)) is recorded as “directly inhibited carbachol-evoked Ca^2+ release”.

Consider `Cl.Cl.O=S(=O)(NCCNCC=Cc1ccc(Br)cc1)c1cccc2cnccc12` [H89, N-[2-[[3-(4-bromophenyl)-2-propenyl]amino]ethyl]-5-isoquinolinesulfonamide dihydrochloride], for which, in [3], the “effect of PKA inhibition on acute and sustained effects of PTH(1-34), NKH477 or 8-Br-cAMP on carbachol-evoked Ca2+ signals” value is recorded as “no effect”. Further, the “intracellular cAMP in H89-treated cells relative to matched control cells” value in experiment [3] (3 µM PTH(1-34) for 1 min) is 95±0.1%; in experiment [3] (3 µM PTH(1-34) for 60 min) it was 98±0.2%.

On to `C=C[C@@]1(C)CC(=O)[C@]2(O)[C@@]3(C)[C@@H](O)CCC(C)(C)[C@@H]3C(OC(=O)CCN(C)C)[C@H](OC(C)=O)[C@@]2(C)O1.Cl` (stereo partly drawn) [NKH477, N,N-dimethyl-(3R,4aR,5S,6aS,10S,10aR,10bS)-5-(acetyloxy)-3-ethenyldodecahydro-10,10b-dihydroxy-3,4a,7,7,10a-pentamethyl-1-oxo-1H-naphtho[2,1-b]pyran-6-yl ester β-alanine hydrochloride], for which the “Peak [Ca2+]c” value in [4] (2 min) came to 331 ± 20 nM; in experiment [4] (30 min), 256 ± 12 nM. Moreover, the pEC50 was 5.0 ± 0.3 /M in [4] (NKH477 2 min), 5.0 ± 0.1 /M in experiment [4] (NKH477 5 min), 5.0 ± 0.1 /M in experiment [4] (NKH477 15 min) and 6.0 ± 0.1 /M in [4] (NKH477 30 min). The “Δ[Ca2+]c (maximal potentiated increase)” value amounted to 257 ± 3 nM in experiment [4] (NKH477 2 min), 225 ± 9 nM in [4] (NKH477 5 min), 155 ± 10 nM in [4] (NKH477 15 min) and 124 ± 24 nM in [4] (NKH477 30 min).

Consider `CC[C@H](C)[C@H](NC(=O)[C@H](CCC(=O)O)NC(=O)[C@H](CO)NC(=O)[C@@H](NC(=O)[C@@H](N)Cc1ccc(O)cc1)C(C)C)C(=O)N[C@@H](CCC(N)=O)C(=O)N[C@@H](CC(C)C)C(=O)N[C@@H](CCSC)C(=O)N[C@@H](Cc1c[nH]cn1)C(=O)N[C@@H](CC(N)=O)C(=O)N[C@@H](CC(C)C)C(=O)NCC(=O)N[C@@H](CCCCN)C(=O)N[C@@H](Cc1c[nH]cn1)C(=O)N[C@@H](CC(C)C)C(=O)N[C@@H](CC(N)=O)C(=O)N[C@@H](CO)C(=O)N[C@@H](CCSC)C(=O)N[C@@H](CCC(=O)O)C(=O)N[C@@H](CCCNC(=N)N)C(=O)N[C@H](C(=O)N[C@@H](CCC(=O)O)C(=O)N[C@@H](Cc1c[nH]c2ccccc12)C(=O)N[C@@H](CC(C)C)C(=O)N[C@@H](CCCNC(=N)N)C(=O)N[C@@H](CCCCN)C(=O)N[C@@H](CCCCN)C(=O)N[C@@H](CC(C)C)C(=O)N[C@@H](CCC(N)=O)C(=O)N[C@@H](CC(=O)O)C(=O)N[C@H](C(=O)N[C@@H](Cc1c[nH]cn1)C(=O)N[C@@H](CC(N)=O)C(=O)N[C@@H](Cc1ccccc1)C(=O)O)C(C)C)C(C)C` [Tyr1PTH(1-34)], for which the EC50 is 0.794 µM in experiment [5] (PTH analogue 1 min), 0.2 µM in experiment [5] (PTH analogue 30 min), 0.2 µM in experiment [6] (setting [11]) and 0.0398 µM in experiment [6] (PTH analogue 30 min).

As for `C[N+](C)(C)CCOC(N)=O` [carbachol, Carbamylcholine chloride], the “transfected cells responding with discernible FRET changes” value in [7] was 52±2%.

Take “PTH(3-34): PTH analogue not used in this study, included for comparison with earlier work (SEIQLMHNLGKHLNSMERVEWLRKKLQDVHNF; Parathyroid hormone; UniProt P01270 34-65, looked up, fragment)”: the “Gq (PLC)” value in experiment [8] is “Inactive”. In addition, the “Signalling to AC from internalized PTH1R” value in experiment [9] is given as “No”.

“SVSEIQLMHNLGKHLNSMERVEWLRKKLQDV [PTH(1-31), analogue of PTH that stimulates adenylyl cyclase]”: the “direct Ca2+ signal evoked by the analogue alone” value in experiment [10] is reported as “directly evoked small Ca^2+ signals”. Further, in experiment [9], the “Signalling to AC from internalized PTH1R” value is listed as “Yes”.

Consider “VSEIQLMHNLGKHLNSMERVEWLRKKLQDVHNFVALG [PTH(2-38)]”, for which the EC50 is 0.316 µM in experiment [5] (PTH analogue 1 min), 0.0631 µM in experiment [5] (PTH analogue 30 min), 0.126 µM in [6] (setting [11]) and 0.0501 µM in [6] (PTH analogue 30 min).
